Assay results: PubChem BioAssay AID248 (DTP/NCI, 2004)
Values joined by “and” are separate entries in the source; they are usually repeats but may differ in a detail not shown here. Equal entries are not always repeated. Inconclusive results and toxic doses are left out. Cut-off read from the data, not from the text of the source: active = T/C of 150% or more; inactive = T/C below 125%.

System: L1210 leukemia ip in BDF1 mice, survival T/C
Assay: NCI In Vivo Anticancer Drug Screen. Data for tumor model L1210 Leukemia (intraperitoneal) in B6D2F1 (BDF1) mice
Settings: endpoint: mean survival time, higher = longer survival
Summary of the method: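 Read-out is survival time, reported as the treated-group measurement over the vehicle-control measurement.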

[1] = dose: 100.0 mg/kg/injection, schedule: Q01DX009 (ip), vehicle: saline with Tween-80
[2] = dose: 200.0 mg/kg/injection, schedule: Q01DX009 (ip), vehicle: saline with Tween-80
[3] = dose: 400.0 mg/kg/injection, schedule: Q01DX009 (ip), vehicle: saline with Tween-80
[4] = dose: 100.0 mg/kg/injection, schedule: Q04DX002 (ip), vehicle: Klucel (hydroxypropylcellulose) (HPC)
[5] = dose: 200.0 mg/kg/injection, schedule: Q04DX002 (ip), vehicle: Klucel (hydroxypropylcellulose) (HPC)
[6] = dose: 100.0 mg/kg/injection, schedule: Q01DX009 (ip), vehicle: Klucel (hydroxypropylcellulose) (HPC)
[7] = dose: 200.0 mg/kg/injection, schedule: Q01DX009 (ip), vehicle: Klucel (hydroxypropylcellulose) (HPC)
[8] = dose: 400.0 mg/kg/injection, schedule: Q01DX009 (ip), vehicle: Klucel (hydroxypropylcellulose) (HPC)
[9] = dose: 100.0 mg/kg/injection, schedule: Q01DX001 (ip), vehicle: other
[10] = dose: 200.0 mg/kg/injection, schedule: Q01DX001 (ip), vehicle: other
[11] = dose: 400.0 mg/kg/injection, schedule: Q01DX001 (ip), vehicle: other
[12] = dose: 50.0 mg/kg/injection, schedule: Q04DX003 (ip), vehicle: saline with Tween-80
[13] = dose: 100.0 mg/kg/injection, schedule: Q04DX003 (ip), vehicle: saline with Tween-80
[14] = dose: 100.0 mg/kg/injection, schedule: Q01DX001 (ip), vehicle: Klucel (hydroxypropylcellulose) (HPC)
[15] = dose: 200.0 mg/kg/injection, schedule: Q01DX001 (ip), vehicle: Klucel (hydroxypropylcellulose) (HPC)
[16] = dose: 100.0 mg/kg/injection, schedule: Q01DX001 (ip), vehicle: saline
[17] = dose: 200.0 mg/kg/injection, schedule: Q01DX001 (ip), vehicle: saline
[18] = dose: 400.0 mg/kg/injection, schedule: Q01DX001 (ip), vehicle: saline
[19] = dose: 25.0 mg/kg/injection, schedule: Q04DX003 (ip), vehicle: Klucel (hydroxypropylcellulose) (HPC)
[20] = dose: 400.0 mg/kg/injection, schedule: Q04DX003 (ip), vehicle: saline with Tween-80
[21] = dose: 400.0 mg/kg/injection, schedule: Q01DX001 (ip), vehicle: Klucel (hydroxypropylcellulose) (HPC)

Measured: T/C

Cc1cc(Cl)cc(C)c1OC(=O)Nc1cccc(C(F)(F)F)c1
inactive: [1] 112 % of control | [2] 106 % of control | [3] 101 % of control

CSc1ccc2c(c1)-c1ccccc1C2=O
inactive: dose: 100.0 mg/kg/injection, schedule: Q04DX003 (ip), vehicle: acetone 94 % of control | dose: 200.0 mg/kg/injection, schedule: Q04DX003 (ip), vehicle: acetone 89 % of control | dose: 400.0 mg/kg/injection, schedule: Q04DX003 (ip), vehicle: acetone 93 % of control

CC1CCCCN1Cc1ccccc1CC(=O)c1ccccc1 (centres undefined)
inactive: [4] 93 % of control | [5] 107 % of control

Cc1cccc(NC(=O)C(C)(C)C)c1C
inactive: [6] 106 % of control | [7] 95 % of control | [8] 101 % of control

CCOP(=O)(Cc1ccc(N=Cc2cnc3nc(NC(C)=O)[nH]c(=O)c3n2)cc1)OCC
inactive: [9] 98 % of control | [10] 105 % of control | [11] 96 % of control

CC1=CCC=C(CNc2ncnc3nc[nH]c23)C1
inactive: dose: 25.0 mg/kg/injection, schedule: Q01DX009 (ip), vehicle: saline with Tween-80 95 % of control | dose: 25.0 mg/kg/injection, schedule: Q04DX003 (ip), vehicle: saline with Tween-80 94 % of control | dose: 50.0 mg/kg/injection, schedule: Q01DX009 (ip), vehicle: saline with Tween-80 93 % of control | [12] 97 % of control | [13] 101 % of control

COc1ccccc1-n1c(O)c(N=Nc2ccc(Cl)cc2)c(=O)n(-c2ccccc2OC)c1=S
inactive: [14] 104 % of control | [15] 110 % of control

Cc1ccc(NC(=S)N2CCCCC2C)cc1C (centres undefined)
inactive: [6] 98 % of control | [7] 101 % of control | [8] 91 % of control

Cc1ccc(S(=O)(=O)Nc2ccc3ncccc3c2[N+](=O)[O-])cc1
inactive: [16] 94 % of control | [17] 93 % of control | [18] 98 % of control

CC(C)(CO)N=Cc1ccccc1O
inactive: [19] 96 % of control | dose: 50.0 mg/kg/injection, schedule: Q04DX003 (ip), vehicle: Klucel (hydroxypropylcellulose) (HPC) 104 % of control | dose: 100.0 mg/kg/injection, schedule: Q04DX003 (ip), vehicle: Klucel (hydroxypropylcellulose) (HPC) 96 % of control

CCOC(=O)c1cnc(SC)nc1Oc1ccccc1Cl
inactive: dose: 100.0 mg/kg/injection, schedule: Q01DX001 (ip), vehicle: saline with Tween-80 96 % of control | [1] 98 % of control | dose: 200.0 mg/kg/injection, schedule: Q01DX001 (ip), vehicle: saline with Tween-80 97 % of control | [2] 96 % of control | dose: 400.0 mg/kg/injection, schedule: Q01DX001 (ip), vehicle: saline with Tween-80 97 % of control | [3] 93 % of control

[Br][Pb]([c]1ccccc1)([c]1ccccc1)[c]1ccccc1
inactive: dose: 1.5 mg/kg/injection, schedule: Q01DX009 (ip), vehicle: saline 103 % of control | dose: 1.56 mg/kg/injection, schedule: Q04DX003 (ip), vehicle: acetone 93 % of control | dose: 3.12 mg/kg/injection, schedule: Q01DX009 (ip), vehicle: saline 100 % of control | dose: 3.12 mg/kg/injection, schedule: Q04DX003 (ip), vehicle: acetone 91 % of control | dose: 6.25 mg/kg/injection, schedule: Q01DX009 (ip), vehicle: saline 92 % of control | dose: 6.25 mg/kg/injection, schedule: Q04DX003 (ip), vehicle: acetone 88 % of control

CC(C)(C)C1CC(C(F)(F)F)(C(F)(F)F)OP(=O)(N2CCCCC2)O1 (centres undefined)
inactive: dose: 50.0 mg/kg/injection, schedule: Q01DX001 (ip), vehicle: Klucel (hydroxypropylcellulose) (HPC) 98 % of control | [14] 100 % of control | [15] 96 % of control

CC(=O)OC1CC2(Cl)CC1(Cl)C(Cl)=C2Cl (centres undefined)
inactive: [12] 105 % of control | [9] 109 % of control | [13] 106 % of control | [10] 100 % of control | [11] 109 % of control | [20] 103 % of control

COc1ccc(CCN)cc1F
inactive: [4] 98 % of control | [5] 102 % of control

O=C(Nc1ccc(Cl)cc1C(F)(F)F)Sc1ccc(Cl)cc1
inactive: dose: 100.0 mg/kg/injection, schedule: Q01DX001 (ip), vehicle: gum acacia 103 % of control and 104 % of control | dose: 100.0 mg/kg/injection, schedule: Q01DX009 (ip), vehicle: gum acacia 92 % of control | dose: 100.0 mg/kg/injection, schedule: Q04DX002 (ip), vehicle: gum acacia 99 % of control and 88 % of control | dose: 100.0 mg/kg/injection, schedule: Q04DX003 (ip), vehicle: gum acacia 92 % of control and 87 % of control | dose: 200.0 mg/kg/injection, schedule: Q01DX001 (ip), vehicle: gum acacia 98 % of control and 103 % of control | dose: 200.0 mg/kg/injection, schedule: Q01DX009 (ip), vehicle: gum acacia 90 % of control | dose: 200.0 mg/kg/injection, schedule: Q04DX002 (ip), vehicle: gum acacia 101 % of control and 102 % of control | dose: 200.0 mg/kg/injection, schedule: Q04DX003 (ip), vehicle: gum acacia 92 % of control and 109 % of control | dose: 400.0 mg/kg/injection, schedule: Q01DX001 (ip), vehicle: gum acacia 100 % of control and 103 % of control | dose: 400.0 mg/kg/injection, schedule: Q04DX002 (ip), vehicle: gum acacia 97 % of control and 89 % of control | dose: 400.0 mg/kg/injection, schedule: Q04DX003 (ip), vehicle: gum acacia 97 % of control and 90 % of control

O=C(C=P(c1ccccc1)(c1ccccc1)c1ccccc1)CCl
inactive: dose: 6.25 mg/kg/injection, schedule: Q01DX001 (ip), vehicle: Klucel (hydroxypropylcellulose) (HPC) 102 % of control | dose: 6.25 mg/kg/injection, schedule: Q01DX009 (ip), vehicle: Klucel (hydroxypropylcellulose) (HPC) 103 % of control | dose: 6.25 mg/kg/injection, schedule: Q04DX003 (ip), vehicle: Klucel (hydroxypropylcellulose) (HPC) 97 % of control | dose: 12.5 mg/kg/injection, schedule: Q01DX001 (ip), vehicle: Klucel (hydroxypropylcellulose) (HPC) 98 % of control | dose: 12.5 mg/kg/injection, schedule: Q01DX009 (ip), vehicle: Klucel (hydroxypropylcellulose) (HPC) 101 % of control | dose: 12.5 mg/kg/injection, schedule: Q04DX003 (ip), vehicle: Klucel (hydroxypropylcellulose) (HPC) 97 % of control | dose: 25.0 mg/kg/injection, schedule: Q01DX001 (ip), vehicle: Klucel (hydroxypropylcellulose) (HPC) 98 % of control | dose: 25.0 mg/kg/injection, schedule: Q01DX009 (ip), vehicle: Klucel (hydroxypropylcellulose) (HPC) 104 % of control | [19] 100 % of control

Clc1ccc(/C=N\Nc2ccccc2)c(Cl)c1
inactive: [14] 103 % of control | [15] 101 % of control | [21] 109 % of control

O=C1c2cc([N+](=O)[O-])ccc2NC1(c1c[nH]c2ccccc12)c1c[nH]c2ccc(Br)cc12 (centres undefined)
inactive: dose: 50.0 mg/kg/injection, schedule: Q01DX001 (ip), vehicle: saline 96 % of control | [16] 96 % of control | [17] 96 % of control | [18] 93 % of control

c1ccc(CNCc2ccc(CNCc3ccccc3)cc2)cc1
inactive: [13] 93 % of control | dose: 200.0 mg/kg/injection, schedule: Q04DX003 (ip), vehicle: saline with Tween-80 97 % of control | [20] 98 % of control

CC(C)(CO)NCc1ccc(Cl)cc1
inactive: [16] 93 % of control | [17] 97 % of control

CCCc1c(C)nc(N)[nH]c1=O
inactive: [14] 102 % of control | [15] 100 % of control | [21] 97 % of control

COC(=O)NCc1nc2cc3c[nH][nH]c3cc2n1
inactive: dose: 75.0 mg/kg/injection, schedule: Q01DX001 (ip), vehicle: carboxymethylcellulose (CMC) 91 % of control
